Six molecules from patent US12404285B2, “KRAS G12D proteolysis targeting chimeras” (PAQ Therapeutics Inc., priority 2022, dated 2025) can be followed below.

The target of the experiment is T1, KRAS (G12D)-HiBit in AsPc-1-KRAS (G12D)-HiBit-KI cell (Homo sapiens, UniProt P01116, G12D).
T1 construct: host or cells: AsPc-1-KRAS (G12D)-HiBit-KI cells (knock-in line)
T1 sequence (P01116 1-188 isoform P01116-2 G12D): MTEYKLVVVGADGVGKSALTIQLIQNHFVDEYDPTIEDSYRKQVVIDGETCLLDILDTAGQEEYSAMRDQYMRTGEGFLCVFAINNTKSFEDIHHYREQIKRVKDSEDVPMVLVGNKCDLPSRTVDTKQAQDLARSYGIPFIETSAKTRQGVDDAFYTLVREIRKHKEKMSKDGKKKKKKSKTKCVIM
In words: G12D HiBit assay. Type of experiment: cell-based. Particulars: 24 hours compound treatment, absolute DC50, read-out: Average PHA DC50. The procedure, abridged: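 AsPc-1 cells with HiBiT knocked into KRAS G12D, seeded at 5×10^3/well and held overnight, then treated 24 h with 10-point 3-fold dilutions (300 nM to 0.015 nM). Lytic Nano-Glo HiBiT luminescence expressed as % of 0.1% DMSO control; absolute DC50 from curve fit.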
In the case of `C#Cc1c(F)ccc2cccc(-c3ncc4c(N5CC6CCC(C5)N6)nc(OC[C@@]56CCCN5[C@H](COC(=O)N5CCC(OCCCCc7cccc8c7n(C)c(=O)n8C7CCC(=O)NC7=O)CC5)CC6)nc4c3F)c12` (stereo partly drawn) [Compound 117, [(3S,8S)-8-[[4-(3,8-Diazabicyclo[3.2.1]octan-3-yl)-7-(8-ethynyl-7-fluoro-1-naphthyl)-8-fluoro-pyrido[4,3-d]pyrimidin-2-yl]oxymethyl]-1,2,3,5,6,7-hexahydropyrrolizin-3-yl]methyl4-[4-[1-(2,6-dioxo-3-piperidyl)-3-methyl-2-oxo-benzimidazol-4-yl]butoxy]piperidine-1-carboxylate], the DC50 is under 100 nM.
As to `C#Cc1c(F)ccc2cccc(-c3ncc4c(N5CC6CCC(C5)N6)nc(OC[C@@]56CCCN5[C@H](COC(=O)N5CCC(OCCCCCc7ccc8c(c7)n(C)c(=O)n8C7CCC(=O)NC7=O)CC5)CC6)nc4c3F)c12` (stereo partly drawn) [Compound 120, [(3S,8S)-8-[[4-(3,8-Diazabicyclo[3.2.1]octan-3-yl)-7-(8-ethynyl-7-fluoro-1-naphthyl)-8-fluoro-pyrido[4,3-d]pyrimidin-2-yl]oxymethyl]-1,2,3,5,6,7-hexahydropyrrolizin-3-yl]methyl 4-[5-[1-(2,6-dioxo-3-piperidyl)-3-methyl-2-oxo-benzimidazol-5-yl]pentoxy]piperidine-1-carboxylate], the DC50 was under 100 nM.
Under `C#Cc1c(F)ccc2cccc(-c3ncc4c(N5CC6CCC(C5)N6)nc(OC[C@@]56CCCN5[C@H](COC(=O)N5CC7(CCN(c8cccc9c8n(C)c(=O)n9C8CCC(=O)NC8=O)CC7)C5)CC6)nc4c3F)c12` (stereo partly drawn) [Compound 121, [(3S,8S)-8-[[4-(3,8-Diazabicyclo[3.2.1]octan-3-yl)-7-(8-ethynyl-7-fluoro-1-naphthyl)-8-fluoro-pyrido[4,3-d]pyrimidin-2-yl]oxymethyl]-1,2,3,5,6,7-hexahydropyrrolizin-3-yl]methyl 7-[1-(2,6-dioxo-3-piperidyl)-3-methyl-2-oxo-benzimidazol-4-yl]-2,7-diazaspiro[3.5]nonane-2-carboxylate] stands at least 300 nM; under `C#Cc1c(F)ccc2cccc(-c3ncc4c(N5CC6CCC(C5)N6)nc(OC[C@@]56CCCN5[C@H](COC(=O)N5CCC(OCCCCCc7cccc8c7n(C)c(=O)n8C7CCC(=O)NC7=O)CC5)CC6)nc4c3F)c12` (stereo partly drawn) [Compound 122, [(3S,8S)-8-[[4-(3,8-diazabicyclo[3.2.1]octan-3-yl)-7-(8-ethynyl-7-fluoro-1-naphthyl)-8-fluoro-pyrido[4,3-d]pyrimidin-2-yl]oxymethyl]-1,2,3,5,6,7-hexahydropyrrolizin-3-yl]methyl4-[5-[1-(2,6-dioxo-3-piperidyl)-3-methyl-2-oxo-benzimidazol-4-yl]pentoxy]piperidine-1-carboxylate], under 100 nM.
Under `C#Cc1c(F)ccc2cccc(-c3ncc4c(N5CC6CCC(C5)N6)nc(OC[C@@]56CCCN5[C@H](COC(=O)NCCOCCN5CCN(c7cccc8c7n(C)c(=O)n8C7CCC(=O)NC7=O)CC5)CC6)nc4c3F)c12` (stereo partly drawn) [Compound 123, [(3S,8S)-8-[[4-(3,8-diazabicyclo[3.2.1]octan-3-yl)-7-(8-ethynyl-7-fluoro-1-naphthyl)-8-fluoro-pyrido[4,3-d]pyrimidin-2-yl]oxymethyl]-1,2,3,5,6,7-hexahydropyrrolizin-3-yl]methyl N-[2-[2-[4-[1-(2,6-dioxo-3-piperidyl)-3-methyl-2-oxo-benzimidazol-4-yl]piperazin-1-yl]ethoxy]ethyl]carbamate] stands at least 300 nM; under `C#Cc1c(F)ccc2cccc(-c3ncc4c(N5CC6CCC(C5)N6)nc(OC[C@@]56CCCN5[C@H](COC(=O)N5CCC7(CC5)CC(CCc5cccc8c5n(C)c(=O)n8C5CCC(=O)NC5=O)C7)CC6)nc4c3F)c12` (stereo partly drawn) [Compound 124, [(3S,8S)-8-[[4-(3,8-Diazabicyclo[3.2.1]octan-3-yl)-7-(8-ethynyl-7-fluoro-1-naphthyl)-8-fluoro-pyrido[4,3-d]pyrimidin-2-yl]oxymethyl]-1,2,3,5,6,7-hexahydropyrrolizin-3-yl]methyl 2-[2-[1-(2,6-dioxo-3-piperidyl)-3-methyl-2-oxo-benzimidazol-4-yl]ethyl]-7-azaspiro[3.5]nonane-7-carboxylate], under 100 nM.
